Results from US9701685B2, “Spiropyrrolidines as MDM2 inhibitors” (HUDSON BIOPHARMA INC., priority 2014, dated 2017).

Assays:
[1] = molecular target: GST-tag full length MDM2 (Homo sapiens (Human), UniProt Q00987); test: MDM2-p53 TR-FRET Binding Assays; conditions: MDM2 / biotin p53 peptide
From the text: MDM2-p53 TR-FRET Binding Assays
Examples are listed in the following.

[2] = test system: SJSA-1; test: Cell proliferation inhibition (CCK-8) against SJSA-1; type: cell-based; conditions: Homo sapiens, SJSA-1, 120 h, SJSA-1 human osteosarcoma cells, 5 days
Procedure: Cellular data of selected compounds against SW480 and SJSA-1 was conducted according to the following protocol.
Cells in the logarithmic growth phase were seeded into 96-well plates (Corning, 3599; 180 μL/well; 3000 cells/well for both SW480 and SJSA-1 cell lines) and cultured in an incubator (Thermo, 3111) for 24 h. Cells were then treated in triplicate by adding 20 μL/well solution containing different concentrations of the tested compounds in 5% CO2 at 37° C. for 5 days. After that, cells were treated for additional 4 h by adding 10 μL/well Cell Counting Kit-8 (CCK-8; DojinDo, CK04) solution. Finally, the absorbance was read at 450 nm with a microplate reader spectra-MAX190 (Molecular Devices, Sunnyvale, Calif.). The IC50 value was determined with SofeMax Pro, a software equipped in this reader. The cell proliferation inhibition rate was calculated as: proliferation inhibition (%)=[1-(A450 treated/A450 control)]×100%.
All the tested compounds could be dissolved in DMSO at 10^−2 M (as stock solution). […] The compounds were diluted at 9 3-fold serial concentrations beginning at the initial concentration of 10 μM (i.e., the highest final concentration to treat the cells). The detailed drug dilution protocol is: Add 5 μL stock solution (10^−2 M) into 495 μL medium, transfer 125 μL of the resulting solution (100 μM) into 250 μL medium, and repeat this till the 9th resulting concentration of 15.2 nM. Pipet 20 μL of each drug dilution into cell plates.

Sequence of GST-tag full length MDM2 (Q00987 whole entry): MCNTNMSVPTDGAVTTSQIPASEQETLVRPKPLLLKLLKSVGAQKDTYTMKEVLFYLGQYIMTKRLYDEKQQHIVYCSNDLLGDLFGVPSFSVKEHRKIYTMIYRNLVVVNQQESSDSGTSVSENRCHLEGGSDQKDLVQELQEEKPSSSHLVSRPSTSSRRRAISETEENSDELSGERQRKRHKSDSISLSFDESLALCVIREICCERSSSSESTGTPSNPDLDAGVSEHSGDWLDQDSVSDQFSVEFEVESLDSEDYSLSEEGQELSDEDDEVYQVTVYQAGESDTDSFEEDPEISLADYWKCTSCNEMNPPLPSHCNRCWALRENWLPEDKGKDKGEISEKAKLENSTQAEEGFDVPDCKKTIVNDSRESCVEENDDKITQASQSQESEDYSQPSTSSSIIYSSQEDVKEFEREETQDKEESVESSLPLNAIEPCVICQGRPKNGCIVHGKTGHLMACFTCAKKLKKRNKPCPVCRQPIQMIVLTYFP

What does the source list for `COc1cc(C(N)=O)ccc1NC(=O)[C@@H]1N[C@@H](CC2(CF)CC2)[C@@]2(C(=O)Nc3cc(Cl)ccc32)[C@H]1c1cccc(Cl)c1F` [Example 77, (2′R,3R,3′S,5′S)-N-(4-carbamoyl-2-methoxy-phenyl)-6-chloro-3′-(3-chloro-2-fluoro-phenyl)-5′-[[1-(fluoromethyl)cyclopropyl]methyl]-2-oxo-spiro[indoline-3,4′-pyrrolidine]-2′-carboxamide]?
IC50 [1]: ≤ 7.2 nM; IC50 [2]: ≤ 20 nM
